These results are taken from publication PMC6358021 (European journal of medicinal chemistry, 2018).

The test system of one data set is human Smo. Particulars: HEK293 cells that stably express human Smo; cited from earlier work.
The next data set concerns the target P-glycoprotein (Pgp) (Homo sapiens, UniProt P08183). Description: P-glycoprotein substrate assessment. The class given is in vitro ADME. Particulars: CRO service (Pharmaron or Cyprotex).
Data set [1] relates to Gli1 mRNA expression in ASZ cells. Description: Hh inhibition: down-regulation of endogenous Gli1 mRNA expression in ASZ cells. The class given is cell-based, murine.
The target of another data set is CYP3A4 (Homo sapiens, UniProt P08684). Description: CYP3A4 inhibition. It counts as in vitro ADME. Particulars: removal of the triazole moiety.
Chain of CYP3A4 (P08684 whole entry): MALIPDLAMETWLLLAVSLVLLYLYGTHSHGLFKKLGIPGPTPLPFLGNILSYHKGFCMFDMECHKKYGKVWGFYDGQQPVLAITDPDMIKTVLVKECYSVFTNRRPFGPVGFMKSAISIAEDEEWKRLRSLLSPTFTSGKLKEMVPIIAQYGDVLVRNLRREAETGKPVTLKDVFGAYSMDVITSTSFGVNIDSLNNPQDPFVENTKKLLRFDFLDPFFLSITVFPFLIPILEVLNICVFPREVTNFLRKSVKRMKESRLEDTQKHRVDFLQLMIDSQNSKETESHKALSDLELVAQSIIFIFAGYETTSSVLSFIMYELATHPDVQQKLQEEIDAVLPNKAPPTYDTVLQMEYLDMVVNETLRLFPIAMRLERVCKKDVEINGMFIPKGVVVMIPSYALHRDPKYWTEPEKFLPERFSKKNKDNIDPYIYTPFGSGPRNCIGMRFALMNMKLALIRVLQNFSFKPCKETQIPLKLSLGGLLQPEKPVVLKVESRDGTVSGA

The structures appear in SMILES notation.

Chain of P-glycoprotein (Pgp) (P08183 whole entry): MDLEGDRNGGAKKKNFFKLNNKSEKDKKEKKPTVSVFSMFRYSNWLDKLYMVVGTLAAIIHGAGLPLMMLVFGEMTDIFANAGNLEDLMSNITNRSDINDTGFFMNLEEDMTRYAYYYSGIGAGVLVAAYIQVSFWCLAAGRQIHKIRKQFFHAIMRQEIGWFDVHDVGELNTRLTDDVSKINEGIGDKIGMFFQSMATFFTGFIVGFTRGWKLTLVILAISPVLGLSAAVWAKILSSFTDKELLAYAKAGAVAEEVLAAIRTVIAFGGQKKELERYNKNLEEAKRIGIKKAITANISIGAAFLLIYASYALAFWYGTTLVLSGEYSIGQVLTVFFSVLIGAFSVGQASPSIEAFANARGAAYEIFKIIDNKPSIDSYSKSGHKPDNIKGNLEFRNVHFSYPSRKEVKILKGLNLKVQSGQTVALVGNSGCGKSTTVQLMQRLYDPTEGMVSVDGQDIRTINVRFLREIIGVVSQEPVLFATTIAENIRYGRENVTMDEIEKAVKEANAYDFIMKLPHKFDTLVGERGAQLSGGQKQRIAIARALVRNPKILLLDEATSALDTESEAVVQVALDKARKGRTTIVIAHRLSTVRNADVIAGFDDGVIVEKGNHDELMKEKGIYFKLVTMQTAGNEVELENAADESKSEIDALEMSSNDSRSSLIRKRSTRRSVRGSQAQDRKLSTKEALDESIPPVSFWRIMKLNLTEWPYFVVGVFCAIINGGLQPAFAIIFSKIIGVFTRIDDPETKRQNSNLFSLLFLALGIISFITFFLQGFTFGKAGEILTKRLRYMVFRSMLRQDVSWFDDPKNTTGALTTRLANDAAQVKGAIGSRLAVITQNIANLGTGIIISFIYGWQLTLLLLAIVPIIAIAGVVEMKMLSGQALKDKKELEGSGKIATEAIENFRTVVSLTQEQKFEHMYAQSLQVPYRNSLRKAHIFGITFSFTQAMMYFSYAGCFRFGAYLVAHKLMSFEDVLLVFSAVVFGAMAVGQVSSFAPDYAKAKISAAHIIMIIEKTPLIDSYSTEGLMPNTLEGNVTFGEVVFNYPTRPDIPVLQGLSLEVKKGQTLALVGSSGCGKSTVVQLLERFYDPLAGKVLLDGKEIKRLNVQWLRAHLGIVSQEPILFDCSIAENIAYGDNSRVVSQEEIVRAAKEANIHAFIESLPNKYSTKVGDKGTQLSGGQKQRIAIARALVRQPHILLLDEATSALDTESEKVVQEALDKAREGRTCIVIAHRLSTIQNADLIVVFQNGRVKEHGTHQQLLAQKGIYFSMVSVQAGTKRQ

On to `CCC(C)n1ncn(-c2ccc(N3CCN(c4ccc(OCC5COC(Cn6cncn6)(c6ccc(Cl)cc6Cl)O5)cc4)CC3)cc2)c1=O` (stereo not drawn) [ITZ, itraconazole], for which the “displacement of a tritiated Smo antagonist” value with human Smo is on record as “significantly displaced”. On to `CC[C@@H]([C@H](C)O)n1ncn(-c2ccc(N3CCN(c4ccc(OC[C@@H]5CO[C@@](Cn6cncn6)(c6ccc(F)cc6F)C5)cc4)CC3)cc2)c1=O` [PSZ, Posaconazole, reference compound], for which, at P-glycoprotein (Pgp), the “P-gp Substrate” value was “identified as a substrate”. Consider `CC[C@@H](C)n1ncn(-c2ccc(N3CCN(c4ccc(OC[C@@H]5CO[C@@](C)(c6ccc(F)cc6F)C5)cc4)CC3)cc2)c1=O` [analogue 1, 2-((R)-sec-butyl)-4-(4-(4-(4-(((3R,5R)-5-(2,4-difluorophenyl)-5-methyltetrahydrofuran-3-yl)methoxy)phenyl)-piperazin-1-yl)phenyl)-2,4-dihydro-3H-1,2,4-triazol-3-one], for which the “P-gp Substrate” value on P-glycoprotein (Pgp) is “not a substrate”. For the same compound, the “fold more potent than PSZ” value in data set [1] (ratio of IC50 values) is “approximately 2.5 fold”. The “ability to inhibit Cyp3A4, in words” value at CYP3A4 is reported as “completely abolished”.

As to `CC1(c2ccc(Cl)cc2Cl)OCC(COc2ccc(N3CCN(c4ccc(-n5cnn(CCC(=O)O)c5=O)cc4)CC3)cc2)O1` (stereo not drawn) [analogue 21, 3-(4-(4-(4-(4-((2-(2,4-dichlorophenyl)-2-methyl-1,3-dioxolan-4-yl)methoxy)phenyl)piperazin-1-yl)phenyl)-5-oxo-4,5-dihydro-1H-1,2,4-triazol-1-yl)propanoic acid], in data set [1], the “fold more active than 19” value is “approximately 2 fold”.
